What was measured:
ABUTH = experiment: Post-emergence action at 320 g/ha against ABUTH; type: in vivo, Abutilon theophrasti; conditions: visual rating about 3 weeks after treatment vs untreated controls
Description: (§1) Accordingly, the compounds of the invention have good herbicidal action against a broad spectrum of weed grasses and broad-leaved weeds and are therefore suitable for controlling unwanted vegetation by the post-emergence method. • b) Seeds of monocotyledonous and dicotyledonous weeds and crop plants are placed in sandy loam in plastic or organic planting pots, covered with soil and cultivated in a greenhouse under controlled growth conditions. 2 to 3 weeks after sowing, the test plants are treated at the one-leaf stage. The compounds of the invention, formulated in the form of wettable powders (WP) or as emulsion concentrates (EC), are then sprayed onto the green parts of the plants as aqueous suspension or emulsion with addition of 0.5% additive at a water application rate of 600 l/ha (converted). After the test plants have been kept in the greenhouse under optimum growth conditions for about 3 weeks, the activity of the preparations is rated visually in comparison to untreated controls. For example, 100% activity=the plants have died, 0% activity=like control plants. Tables 39 to 49 below show the effects of selected compounds of the general formula (I) according to Tables 1 and 2 on various harmful plants and at an application rate corresponding to 320 g/ha, which were obtained by the experimental procedure mentioned above.

AVEFA [1] = experiment: Post-emergence action at 320 g/ha against AVEFA; type: in vivo; conditions: visual rating about 3 weeks after treatment vs untreated controls
In short: (§2)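 Sow in sandy loam → greenhouse growth 2–3 wk → spray at one-leaf stage (WP/EC, aqueous, +0.5% additive, 600 l/ha) → hold ~3 wk under optimum conditions → visual rating, 0–100% relative to untreated.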

POLCO [2] = experiment: Pre-emergence action at 320 g/ha against POLCO; type: in vivo, Fallopia convolvulus (Polygonum convolvulus); conditions: visual scoring after about 3 weeks vs untreated controls
In short: (§3)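 Effect rated visually (% vs untreated control) about 3 weeks after pre-emergence spraying of WP/EC formulation onto soil; spray carried 0.5% additive at 600 l/ha water.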

DIGSA [3] = experiment: Pre-emergence action at 320 g/ha against DIGSA; type: in vivo, Digitaria sanguinalis; conditions: visual scoring after about 3 weeks vs untreated controls
In short: as §3

VIOTR [4] = experiment: Post-emergence action at 320 g/ha against VIOTR; type: in vivo, Viola tricolor; conditions: visual rating about 3 weeks after treatment vs untreated controls
In short: as §2

PHBPU [5] = experiment: Pre-emergence action at 320 g/ha against PHBPU; type: in vivo; conditions: visual scoring after about 3 weeks vs untreated controls
In short: as §3

HORMU [6] = experiment: Pre-emergence action at 320 g/ha against HORMU; type: in vivo, Hordeum murinum; conditions: greenhouse, scored visually after about 3 weeks vs untreated controls, 100% = plants have died, 0% = like control plants
Description: (§4) b) Seeds of monocotyledonous and dicotyledonous weed plants and crop plants are placed in plastic or organic planting pots and covered with soil. The compounds of the invention, formulated in the form of wettable powders (WP) or as emulsion concentrates (EC), are then applied onto the surface of the covering soil as aqueous suspension or emulsion with addition of 0.5% additive at a water application rate of 600 l/ha (converted). After the treatment, the pots are placed in a greenhouse and kept under good growth conditions for the trial plants. After about 3 weeks, the effect of the preparations is scored visually in comparison with untreated controls as percentages. For example, 100% activity=the plants have died, 0% activity=like control plants. Tables 13 to 26 below show the effects of selected compounds of the general formula (I) on various harmful plants and at an application rate corresponding to 320 g/ha, which were obtained by the experimental procedure mentioned above.

SETVI [7] = experiment: Pre-emergence action at 320 g/ha against SETVI; type: in vivo, Setaria viridis; conditions: visual scoring after about 3 weeks vs untreated controls
In short: as §3

ALOMY [8] = experiment: Post-emergence action against ALOMY, 320 g/ha; type: in vivo, Alopecurus myosuroides; conditions: dosage 320 g/ha, visual rating about 3 weeks after treatment vs untreated controls (100% = plants died)
In short: as §2

ECHCG = experiment: Post-emergence action at 320 g/ha against ECHCG; type: in vivo, Echinochloa crus-galli; conditions: dosage 320 g/ha, visual rating about 3 weeks after treatment vs untreated controls (100% = plants died)
In short: as §2

SETVI [9] = experiment: Post-emergence action at 320 g/ha against SETVI; type: in vivo, Setaria viridis; conditions: visual rating about 3 weeks after treatment vs untreated controls
In short: as §2

POLCO [10] = experiment: Post-emergence action at 320 g/ha against POLCO; type: in vivo, Fallopia convolvulus (Polygonum convolvulus); conditions: visual rating about 3 weeks after treatment vs untreated controls
In short: as §2

STEME = experiment: Pre-emergence action at 320 g/ha against STEME; type: in vivo, Stellaria media; conditions: greenhouse, scored visually after about 3 weeks vs untreated controls, 100% = plants have died, 0% = like control plants
Description: as §4

MATIN = experiment: Pre-emergence action at 320 g/ha against MATIN; type: in vivo, Tripleurospermum inodorum (Matricaria inodora); conditions: visual scoring after about 3 weeks vs untreated controls
In short: as §3

PHBPU [11] = experiment: Post-emergence action at 320 g/ha against PHBPU; type: in vivo; conditions: visual rating about 3 weeks after treatment vs untreated controls
Description: as §1

DIGSA [12] = experiment: Post-emergence action at 320 g/ha against DIGSA; type: in vivo, Digitaria sanguinalis; conditions: dosage 320 g/ha, visual rating about 3 weeks after treatment vs untreated controls (100% = plants died)
In short: as §2

LOLRI = experiment: Pre-emergence action at 320 g/ha against LOLRI; type: in vivo, Lolium rigidum; conditions: visual scoring after about 3 weeks vs untreated controls
In short: as §3

VIOTR [13] = experiment: Pre-emergence action at 320 g/ha against VIOTR; type: in vivo, Viola tricolor; conditions: dosage 320 g/ha
In short: as §3

ALOMY [14] = experiment: Pre-emergence action at 320 g/ha against ALOMY; type: in vivo, Alopecurus myosuroides; conditions: scored visually after about 3 weeks vs untreated controls (100% = plants have died)
In short: as §3

HORMU [15] = experiment: Post-emergence action at 320 g/ha against HORMU; type: in vivo, Hordeum murinum; conditions: visual rating about 3 weeks after treatment vs untreated controls
Description: as §1

ECHGC = experiment: Pre-emergence action at 320 g/ha against ECHGC; type: in vivo, Echinochloa crus-galli; conditions: visual scoring after about 3 weeks vs untreated controls
In short: as §3

VERPE = experiment: Pre-emergence action at 320 g/ha against VERPE; type: in vivo, Veronica persica; conditions: visual scoring after about 3 weeks vs untreated controls
In short: as §3

AVEFA [16] = experiment: Pre-emergence action at 320 g/ha against AVEFA; type: in vivo; conditions: visual scoring after about 3 weeks vs untreated controls
In short: as §3

AMARE = experiment: Pre-emergence action at 320 g/ha against AMARE; type: in vivo, Amaranthus retroflexus; conditions: visual scoring after about 3 weeks vs untreated controls
In short: as §3

Question: Which “Post-emergence action against ABUTH in %” value (ABUTH) does the source give for `CC(C)OC(=O)COc1nn(-c2ccccc2F)c(-c2ccc(F)nc2)c1Br` [VII-005] here?
Answer: 80%

Question: What about the “Post-emergence action against AVEFA in %” value (AVEFA [1]) of the same compound?
Answer: 100%

Question: What about the “Pre-emergence action against POLCO in %” value (POLCO [2]) of the same compound?
Answer: 100%

Question: What about the “Pre-emergence action against DIGSA in %” value (DIGSA [3]) of the same compound?
Answer: 100%

Question: And the “Post-emergence action against VIOTR in %” value (VIOTR [4])?
Answer: 100%

Question: And the “Pre-emergence action against PHBPU in %” value (PHBPU [5])?
Answer: 80%

Question: And the “Pre-emergence action at 320 g/ha against HORMU in %” value (HORMU [6])?
Answer: 100%

Question: What about the “Pre-emergence action against SETVI in %” value (SETVI [7]) of the same compound?
Answer: 100%

Question: And the “Post-emergence action against ALOMY” value (ALOMY [8])?
Answer: 100%

Question: And the “Post-emergence action at 320 g/ha against ECHCG in %” value (ECHCG)?
Answer: 90%

Question: And the “Post-emergence action against SETVI in %” value (SETVI [9])?
Answer: 80%

Question: What about the “Post-emergence action against POLCO in %” value (POLCO [10]) of the same compound?
Answer: 80%

Question: And the “Pre-emergence action at 320 g/ha against STEME in %” value (STEME)?
Answer: 90%

Question: And the “Pre-emergence action against MATIN in %” value (MATIN)?
Answer: 100%

Question: And the “Post-emergence action against PHBPU in %” value (PHBPU [11])?
Answer: 90%

Question: What about the “Post-emergence action at 320 g/ha against DIGSA in %” value (DIGSA [12]) of the same compound?
Answer: 90%

Question: What about the “Pre-emergence action against LOLRI in %” value (LOLRI) of the same compound?
Answer: 100%

Question: What about the “Pre-emergence action against VIOTR in %” value (VIOTR [13]) of the same compound?
Answer: 100%

Question: And the “Pre-emergence action at 320 g/ha against ALOMY in %” value (ALOMY [14])?
Answer: 100%

Question: And the “Post-emergence action against HORMU in %” value (HORMU [15])?
Answer: 90%

Question: And the “Pre-emergence action against ECHGC in %” value (ECHGC)?
Answer: 100%

Question: What about the “Pre-emergence action against VERPE in %” value (VERPE) of the same compound?
Answer: 100%

Question: What about the “Pre-emergence action against AVEFA in %” value (AVEFA [16]) of the same compound?
Answer: 90%

Question: And the “Pre-emergence action against AMARE in %” value (AMARE)?
Answer: 100%

From US12180187B2, “1-phenyl-5-azinylpyrazolyl-3-oxyalkyl acids and their use for controlling unwanted plant growth” (BAYER AKTIENGESELLSCHAFT, priority 2019, dated 2024)
